# Experimental data reported in ChEMBL document CHEMBL1201862, “PubChem BioAssay data set” (2004).
# Activity calls are given as the source filed them.
# Legend:
# [1] = target: Voltage-dependent T-type calcium channel subunit alpha-1H (Homo sapiens, UniProt O95180); test: inhibition of CACNA1H calcium flux – cell-based, SynthLib3 library, HEK293 Cav3.2, fluorescence (AID 493041); format: functional
# [2] = MIN6 cell viability loss – mouse insulinoma, cytotoxicity control, dose response (AID 2122); format: functional;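 further: confirmatory high-throughput counterscreen run to flag cytotoxic compounds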
# [3] = HIV-1 AD8 envelope cell-cell fusion blockers – cherry-pick, dose response (AID 652062); format: functional, cell-based;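 further: luciferase signal from cell-cell fusion driven by HIV-1 clade B AD8 Env; potency is for inhibitors of fusion seen as a drop in luminescence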
# [4] = target: T1, Short transient receptor potential channel 4 (Mus musculus, UniProt Q9QUQ5); test: block of DAMGO-driven TRPC4 calcium entry – cell-based, HEK293 TRPC4/mu-opioid, Fluo-4 calcium, dose response (AID 434942); format: functional;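 further: potency of inhibitors blocking the TRPC4 calcium response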
# T1 sequence (Q9QUQ5 whole entry): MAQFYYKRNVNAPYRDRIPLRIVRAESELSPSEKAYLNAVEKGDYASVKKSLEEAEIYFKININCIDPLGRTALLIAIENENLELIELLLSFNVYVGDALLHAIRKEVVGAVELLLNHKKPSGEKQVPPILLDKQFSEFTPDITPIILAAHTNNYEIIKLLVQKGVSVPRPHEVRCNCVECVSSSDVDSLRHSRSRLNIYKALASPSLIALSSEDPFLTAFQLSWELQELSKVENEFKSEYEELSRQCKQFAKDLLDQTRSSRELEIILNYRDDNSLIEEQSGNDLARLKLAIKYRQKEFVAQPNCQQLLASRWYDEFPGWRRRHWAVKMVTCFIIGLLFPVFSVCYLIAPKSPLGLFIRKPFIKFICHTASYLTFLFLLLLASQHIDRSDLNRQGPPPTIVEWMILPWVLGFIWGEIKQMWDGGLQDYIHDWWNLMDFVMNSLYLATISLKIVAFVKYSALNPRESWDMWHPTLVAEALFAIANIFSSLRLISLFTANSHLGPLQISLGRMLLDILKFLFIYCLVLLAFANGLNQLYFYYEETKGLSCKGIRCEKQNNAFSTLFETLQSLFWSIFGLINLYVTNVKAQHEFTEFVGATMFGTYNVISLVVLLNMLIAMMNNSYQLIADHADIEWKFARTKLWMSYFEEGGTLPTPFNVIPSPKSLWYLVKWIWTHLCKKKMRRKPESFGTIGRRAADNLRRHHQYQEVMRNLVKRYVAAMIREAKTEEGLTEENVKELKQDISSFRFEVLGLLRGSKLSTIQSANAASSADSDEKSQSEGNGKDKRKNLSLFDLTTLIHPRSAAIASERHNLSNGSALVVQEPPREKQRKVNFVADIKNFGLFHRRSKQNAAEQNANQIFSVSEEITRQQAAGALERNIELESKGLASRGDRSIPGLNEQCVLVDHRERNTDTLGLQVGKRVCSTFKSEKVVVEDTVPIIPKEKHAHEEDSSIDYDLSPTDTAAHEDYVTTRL
# [5] = target: Cyclin-dependent kinase 5/CDK5 activator 1 (Homo sapiens, UniProt Q00535); test: blockade of human CDK5 activity – biochemical, cherry-picked samples, set 2, dose response (AID 504545)
# [6] = decrease of insulin promoter-GFP reporter – imaging, high-content screening, mouse beta cells (AID 1628); format: functional; settings: MIN6
# [7] = blockers of HIV-1 envelope-mediated cell-cell fusion – cherry-pick, dose response (AID 652057); format: functional, cell-based
# [8] = viability loss in CEM21 cells – cell-based, CellTiter-Glo luminescence, cherry-picked, cytotoxicity control for viral fusion inhibitor project, dose response (AID 652042); format: functional;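 further: potency for signal decrease meaning cytotoxicity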
# [9] = blockers of HIV-1 ZM109 envelope-driven cell-cell fusion – HeLa effector, CEM target cells, luciferase, cherry-pick, dose response (AID 652058); format: functional, cell-based;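 further: luciferase signal from HIV-1 Env mediated cell-cell fusion of effector and target cells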
# [10] = off-target signal loss in HeLa-CEM21 co-culture – HeLa F-luc CTL cells, cherry-picked, counter-screen for HIV-1 Env fusion inhibitor project, dose response (AID 652040); format: functional, cell-based;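 further: potency for signal decrease marking cytotoxic or nonspecific inhibition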
# [11] = target: T2, Nucleotide-binding oligomerization domain-containing protein 1 (Homo sapiens, UniProt Q9Y239); test: SAR analysis of compounds that inhibit NOD1 - Set 3. [Related pubchem assays (depositor defined):AID1566, AID1575, AID1578, AID1849, AID1852, AID2333, AID2335, AID2466]; format: functional
# T2 sequence (Q9Y239 whole entry): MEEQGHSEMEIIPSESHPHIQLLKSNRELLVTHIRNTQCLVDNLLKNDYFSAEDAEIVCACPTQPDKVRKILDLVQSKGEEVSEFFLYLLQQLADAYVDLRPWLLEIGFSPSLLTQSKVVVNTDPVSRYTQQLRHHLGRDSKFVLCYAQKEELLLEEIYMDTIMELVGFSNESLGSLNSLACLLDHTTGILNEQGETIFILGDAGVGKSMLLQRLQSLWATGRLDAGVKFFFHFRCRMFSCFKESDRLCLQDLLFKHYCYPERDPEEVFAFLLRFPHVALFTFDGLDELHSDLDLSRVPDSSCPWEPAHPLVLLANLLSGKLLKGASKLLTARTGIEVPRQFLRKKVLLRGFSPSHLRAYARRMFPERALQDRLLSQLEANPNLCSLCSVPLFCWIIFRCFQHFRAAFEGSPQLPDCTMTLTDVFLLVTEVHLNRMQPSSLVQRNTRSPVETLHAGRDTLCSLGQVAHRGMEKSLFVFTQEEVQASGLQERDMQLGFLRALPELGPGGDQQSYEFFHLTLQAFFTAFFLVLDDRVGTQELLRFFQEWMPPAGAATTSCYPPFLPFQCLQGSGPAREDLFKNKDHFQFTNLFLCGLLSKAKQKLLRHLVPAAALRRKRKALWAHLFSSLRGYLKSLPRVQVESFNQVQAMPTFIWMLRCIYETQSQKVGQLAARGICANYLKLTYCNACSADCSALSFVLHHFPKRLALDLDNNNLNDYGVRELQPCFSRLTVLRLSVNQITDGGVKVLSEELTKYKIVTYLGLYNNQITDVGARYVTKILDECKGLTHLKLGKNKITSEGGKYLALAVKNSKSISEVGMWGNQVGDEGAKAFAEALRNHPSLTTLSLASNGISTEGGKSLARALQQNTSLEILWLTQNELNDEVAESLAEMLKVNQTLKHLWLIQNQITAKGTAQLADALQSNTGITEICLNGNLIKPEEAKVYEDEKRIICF
# Fatty acid synthase [12] = target: T3, Fatty acid synthase (Homo sapiens, UniProt P49327); test: inhibition of human FAS-TE enzyme activity – biochemical, kinetic fluorescence intensity, dose response (AID 624326); format: functional;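 further: rate of fluorescence rise from hydrolysis of a fluorogenic O-methyl fluorescein ester substrate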
# [13] = target: T4, Nucleotide-binding oligomerization domain-containing protein 2 (Homo sapiens, UniProt Q9HC29); test: inhibition of NOD2 signaling – set 2, SAR follow-up (AID 2475); format: functional
# [14] = target: T5, High affinity choline transporter 1 (Homo sapiens, UniProt Q9GZV3); test: human choline transporter blockers, potency – cell-based, 5-point CRC, membrane potential dye, dose response (AID 504840); format: functional
# T5 sequence (Q9GZV3 whole entry): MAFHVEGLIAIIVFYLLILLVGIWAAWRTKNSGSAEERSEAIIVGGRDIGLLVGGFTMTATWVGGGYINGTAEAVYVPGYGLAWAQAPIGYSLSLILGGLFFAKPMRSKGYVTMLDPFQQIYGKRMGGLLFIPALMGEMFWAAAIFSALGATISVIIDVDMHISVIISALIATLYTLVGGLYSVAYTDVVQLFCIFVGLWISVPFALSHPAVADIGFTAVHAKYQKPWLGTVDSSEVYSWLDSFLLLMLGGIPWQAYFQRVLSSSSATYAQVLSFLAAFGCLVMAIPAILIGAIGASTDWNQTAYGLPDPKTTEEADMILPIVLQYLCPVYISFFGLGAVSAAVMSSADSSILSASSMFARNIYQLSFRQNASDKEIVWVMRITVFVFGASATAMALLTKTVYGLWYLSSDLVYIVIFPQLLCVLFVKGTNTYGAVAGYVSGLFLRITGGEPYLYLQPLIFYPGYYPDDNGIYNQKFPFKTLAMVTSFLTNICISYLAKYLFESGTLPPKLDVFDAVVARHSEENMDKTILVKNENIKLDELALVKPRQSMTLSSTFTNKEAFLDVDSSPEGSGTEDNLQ
# [15] = target: T2, Nucleotide-binding oligomerization domain-containing protein 1; test: SAR analysis of compounds that inhibit NOD1 - Set 2. [Related pubchem assays (depositor defined):AID1566, AID1575, AID1578, AID1849, AID1852, AID2333, AID2335, AID2798]; format: functional
# [16] = target: T2, Nucleotide-binding oligomerization domain-containing protein 1; test: SAR analysis of NF-kappaB dependent luciferase using DAP as an inducer - Set 2. [Related pubchem assays (depositor defined):AID1566, AID1575, AID1578, AID1579, AID1849, AID1852, AID2264]; format: functional
# Fatty acid synthase [17] = target: T3, Fatty acid synthase; test: inhibition of human FAS-TE enzyme activity – biochemical, endpoint fluorescence intensity, uHTS hits, dose response (AID 624327); format: functional;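 further: fluorescence from hydrolysis of an O-methyl fluorescein acyl ester substrate by the enzyme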
# Interleukin-8 [18] = target: T6, Interleukin-8 (Homo sapiens, UniProt P10145); test: SAR analysis of GM-Tri-DAP induced IL-8 secretion in MCF-7/NOD1 cells - Set 2. [Related pubchem assays (depositor defined):AID1575, AID1578, AID2333]; format: functional, cell-based
# HEK293 [19] = test: SAR analysis of compounds that are cytotoxic to HEK293 - Set 3. [Related pubchem assays (depositor defined):AID1575, AID1578, AID1848, AID1849, AID2001, AID2333, AID2334, AID2335, AID2337, AID2469]; format: functional, cell-based; settings: Homo sapiens
# HEK293 [20] = test: SAR analysis of compounds that are cytotoxic to HEK293 - Set 2. [Related pubchem assays (depositor defined):AID1575, AID1578, AID1849, AID2001, AID2333, AID2334, AID2335, AID2337, AID2800]; format: functional, cell-based; settings: Homo sapiens
# [21] = target: T4, Nucleotide-binding oligomerization domain-containing protein 2; test: inhibition of MDP-driven NOD2 NF-kB reporter – cell-based, set 3, SAR follow-up (AID 2799); format: functional
# Tumor necrosis factor [22] = target: T7, Tumor necrosis factor (Homo sapiens, UniProt P01375); test: analog potency on TNFa NF-kB signaling – cell-based, set 3, SAR follow-up (AID 2801); format: functional
# Interleukin-8 [23] = target: T6, Interleukin-8; test: SAR analysis of Tumor necrosis factor alpha (TNF-alpha) induced IL-8 secretion in MCF-7/NOD1 cells - Set 2. [Related pubchem assays (depositor defined):AID1575, AID2250, AID2260]; format: functional, cell-based
# [24] = target: Delta-type opioid receptor (Homo sapiens, UniProt P41143); test: Counterscreen for agonists of heterodimerization of the mu 1 (OPRM1) and delta 1 (OPRD1) opioid receptors: Luminescence-based cell-based high throughput dose response assay to identify agonists of OPRD1 homodimerization. [Related pubchem assays (depositor defined):AID504326, AID504355, AID504692, AID504904, AID504905]; format: functional
# [25] = target: 5-hydroxytryptamine receptor 5A (Homo sapiens, UniProt P47898); test: Counterscreen for agonists of OPRM1-OPRD1 heterodimerization: luminescence-based cell-based high throughput dose response assay to identify agonists of 5-hydroxytryptamine (serotonin) 5A receptor (HTR5A). [Related pubchem assays (depositor defined):AID504326, AID504355, AID504692, AID504904, AID504905]; format: functional
# [26] = target: T1, Short transient receptor potential channel 4; test: calcium entry via TRPC4 opening agents – cell-based, HEK293 TRPC4/mu-opioid, Fluo-4 calcium, dose response (AID 434937); format: functional
# Mu-type opioid receptor = Mu-type opioid receptor (Homo sapiens, UniProt P35372); test: Counterscreen for agonists of heterodimerization of the mu 1 (OPRM1) and delta 1 (OPRD1) opioid receptors: Luminescence-based cell-based high throughput dose response assay to identify agonists of OPRM1 homodimerization.; format: functional;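 further: U2OS cells expressing OPRM1 and beta-arrestin as split beta-galactosidase partners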
# HEK293 [27] = test: cells; settings: Homo sapiens
# [28] = target: T2, Nucleotide-binding oligomerization domain-containing protein 1; test: blockers of NOD1 pathway activity – revised, SAR follow-up (AID 2333); format: functional
# Tumor necrosis factor [29] = target: T7, Tumor necrosis factor; test: analog potency on TNFa NF-kB signaling – cell-based, revised, SAR follow-up (AID 2337); format: functional
# [30] = target: T4, Nucleotide-binding oligomerization domain-containing protein 2; test: PubChem AID 2334; format: functional
# T4 sequence (Q9HC29 whole entry, the tested form may be a part): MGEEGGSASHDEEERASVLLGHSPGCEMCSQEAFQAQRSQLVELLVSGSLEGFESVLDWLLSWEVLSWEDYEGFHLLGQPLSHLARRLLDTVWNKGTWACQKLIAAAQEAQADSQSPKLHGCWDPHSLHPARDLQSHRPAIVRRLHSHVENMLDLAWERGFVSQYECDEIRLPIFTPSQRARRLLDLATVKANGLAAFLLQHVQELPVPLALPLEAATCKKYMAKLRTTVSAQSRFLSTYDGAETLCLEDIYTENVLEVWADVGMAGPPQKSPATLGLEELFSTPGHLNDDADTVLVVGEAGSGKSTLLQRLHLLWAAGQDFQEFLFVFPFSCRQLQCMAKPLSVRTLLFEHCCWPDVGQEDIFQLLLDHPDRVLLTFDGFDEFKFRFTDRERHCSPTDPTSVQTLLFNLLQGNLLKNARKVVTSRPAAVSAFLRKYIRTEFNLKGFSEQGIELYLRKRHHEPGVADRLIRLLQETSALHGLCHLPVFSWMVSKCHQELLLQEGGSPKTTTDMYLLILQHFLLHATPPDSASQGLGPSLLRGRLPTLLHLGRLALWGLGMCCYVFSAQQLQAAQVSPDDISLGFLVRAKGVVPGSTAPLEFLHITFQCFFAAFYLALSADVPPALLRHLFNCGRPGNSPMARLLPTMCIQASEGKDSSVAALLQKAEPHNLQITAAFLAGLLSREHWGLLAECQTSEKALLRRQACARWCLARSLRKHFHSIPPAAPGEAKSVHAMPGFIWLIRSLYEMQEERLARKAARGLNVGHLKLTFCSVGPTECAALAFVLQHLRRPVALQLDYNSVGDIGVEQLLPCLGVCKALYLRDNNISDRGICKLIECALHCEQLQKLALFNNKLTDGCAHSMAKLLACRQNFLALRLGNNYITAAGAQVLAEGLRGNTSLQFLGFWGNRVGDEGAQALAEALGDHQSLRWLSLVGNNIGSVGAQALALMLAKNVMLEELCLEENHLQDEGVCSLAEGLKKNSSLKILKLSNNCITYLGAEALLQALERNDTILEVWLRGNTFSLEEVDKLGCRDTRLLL
# T3 sequence (P49327 whole entry, the tested form may be a part): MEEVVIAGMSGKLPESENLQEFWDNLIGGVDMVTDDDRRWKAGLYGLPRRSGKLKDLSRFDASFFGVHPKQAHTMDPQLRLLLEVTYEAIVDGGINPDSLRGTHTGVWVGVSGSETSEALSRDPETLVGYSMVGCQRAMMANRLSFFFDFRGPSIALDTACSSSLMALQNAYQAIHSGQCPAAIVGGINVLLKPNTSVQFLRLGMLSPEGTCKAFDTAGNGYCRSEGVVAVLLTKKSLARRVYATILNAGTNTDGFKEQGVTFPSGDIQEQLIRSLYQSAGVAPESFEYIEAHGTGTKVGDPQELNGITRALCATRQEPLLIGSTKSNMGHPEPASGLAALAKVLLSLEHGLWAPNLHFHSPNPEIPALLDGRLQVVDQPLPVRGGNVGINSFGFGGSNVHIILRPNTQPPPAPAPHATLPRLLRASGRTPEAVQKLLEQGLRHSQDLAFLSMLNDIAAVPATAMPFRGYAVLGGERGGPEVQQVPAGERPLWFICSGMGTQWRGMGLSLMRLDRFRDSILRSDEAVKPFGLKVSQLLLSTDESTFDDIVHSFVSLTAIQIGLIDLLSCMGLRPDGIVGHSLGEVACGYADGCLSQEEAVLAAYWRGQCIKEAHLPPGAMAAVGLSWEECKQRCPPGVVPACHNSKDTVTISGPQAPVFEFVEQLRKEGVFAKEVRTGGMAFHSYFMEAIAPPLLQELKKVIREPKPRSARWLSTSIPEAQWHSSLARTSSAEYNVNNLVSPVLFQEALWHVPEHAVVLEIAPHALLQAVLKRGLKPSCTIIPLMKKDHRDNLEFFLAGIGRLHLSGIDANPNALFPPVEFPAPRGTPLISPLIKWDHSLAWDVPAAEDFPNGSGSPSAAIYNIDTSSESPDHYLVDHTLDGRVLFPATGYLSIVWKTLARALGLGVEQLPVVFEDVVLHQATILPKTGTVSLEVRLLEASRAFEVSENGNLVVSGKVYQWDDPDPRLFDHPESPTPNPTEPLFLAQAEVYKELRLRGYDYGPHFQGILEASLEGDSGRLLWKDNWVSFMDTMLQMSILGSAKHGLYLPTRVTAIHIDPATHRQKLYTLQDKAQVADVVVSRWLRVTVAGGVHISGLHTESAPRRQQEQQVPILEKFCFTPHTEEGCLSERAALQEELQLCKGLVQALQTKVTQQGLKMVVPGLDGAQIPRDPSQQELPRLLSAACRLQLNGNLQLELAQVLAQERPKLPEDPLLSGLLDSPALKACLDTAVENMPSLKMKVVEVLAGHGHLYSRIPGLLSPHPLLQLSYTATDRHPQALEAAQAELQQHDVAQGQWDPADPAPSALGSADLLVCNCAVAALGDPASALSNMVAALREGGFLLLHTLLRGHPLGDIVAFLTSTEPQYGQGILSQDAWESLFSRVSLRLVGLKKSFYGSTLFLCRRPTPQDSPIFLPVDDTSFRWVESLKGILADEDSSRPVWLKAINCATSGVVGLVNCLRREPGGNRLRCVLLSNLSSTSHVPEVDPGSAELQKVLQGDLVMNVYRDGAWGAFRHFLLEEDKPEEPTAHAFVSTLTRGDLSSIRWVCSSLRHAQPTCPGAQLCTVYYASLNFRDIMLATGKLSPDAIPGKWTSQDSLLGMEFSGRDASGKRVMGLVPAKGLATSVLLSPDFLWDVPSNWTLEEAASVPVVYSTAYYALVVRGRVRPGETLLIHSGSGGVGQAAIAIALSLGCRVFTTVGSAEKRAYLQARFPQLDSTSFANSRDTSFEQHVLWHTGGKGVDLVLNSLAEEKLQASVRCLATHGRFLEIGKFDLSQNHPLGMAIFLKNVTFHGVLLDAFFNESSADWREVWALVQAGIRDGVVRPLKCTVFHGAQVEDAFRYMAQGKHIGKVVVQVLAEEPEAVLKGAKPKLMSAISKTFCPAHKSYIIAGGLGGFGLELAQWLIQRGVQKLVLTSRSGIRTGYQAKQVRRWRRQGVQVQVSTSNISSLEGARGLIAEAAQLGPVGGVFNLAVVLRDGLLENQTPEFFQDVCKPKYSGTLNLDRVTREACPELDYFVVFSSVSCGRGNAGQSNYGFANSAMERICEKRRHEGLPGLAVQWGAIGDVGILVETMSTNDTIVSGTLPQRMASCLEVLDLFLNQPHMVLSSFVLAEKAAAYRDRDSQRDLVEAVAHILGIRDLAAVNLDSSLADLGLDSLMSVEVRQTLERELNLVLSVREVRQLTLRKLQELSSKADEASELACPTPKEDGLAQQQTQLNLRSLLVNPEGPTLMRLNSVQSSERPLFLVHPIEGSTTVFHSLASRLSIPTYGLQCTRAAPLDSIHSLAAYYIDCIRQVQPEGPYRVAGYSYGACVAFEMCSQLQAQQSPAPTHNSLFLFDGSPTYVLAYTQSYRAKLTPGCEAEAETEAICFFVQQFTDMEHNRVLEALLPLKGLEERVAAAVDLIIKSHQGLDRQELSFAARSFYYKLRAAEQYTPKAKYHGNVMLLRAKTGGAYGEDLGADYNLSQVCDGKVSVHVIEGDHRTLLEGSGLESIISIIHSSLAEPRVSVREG
# T6 sequence (P10145 whole entry): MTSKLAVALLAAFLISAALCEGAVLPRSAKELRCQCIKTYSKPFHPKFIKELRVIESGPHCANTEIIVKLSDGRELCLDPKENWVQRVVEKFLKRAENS
# T7 sequence (P01375 whole entry): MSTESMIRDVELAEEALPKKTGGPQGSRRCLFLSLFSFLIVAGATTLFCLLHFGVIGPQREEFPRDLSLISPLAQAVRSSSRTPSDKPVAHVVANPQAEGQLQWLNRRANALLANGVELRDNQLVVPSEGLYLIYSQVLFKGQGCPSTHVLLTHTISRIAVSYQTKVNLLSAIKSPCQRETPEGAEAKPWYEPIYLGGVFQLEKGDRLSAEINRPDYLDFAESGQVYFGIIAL
# Chain of 5-hydroxytryptamine receptor 5A (P47898 whole entry): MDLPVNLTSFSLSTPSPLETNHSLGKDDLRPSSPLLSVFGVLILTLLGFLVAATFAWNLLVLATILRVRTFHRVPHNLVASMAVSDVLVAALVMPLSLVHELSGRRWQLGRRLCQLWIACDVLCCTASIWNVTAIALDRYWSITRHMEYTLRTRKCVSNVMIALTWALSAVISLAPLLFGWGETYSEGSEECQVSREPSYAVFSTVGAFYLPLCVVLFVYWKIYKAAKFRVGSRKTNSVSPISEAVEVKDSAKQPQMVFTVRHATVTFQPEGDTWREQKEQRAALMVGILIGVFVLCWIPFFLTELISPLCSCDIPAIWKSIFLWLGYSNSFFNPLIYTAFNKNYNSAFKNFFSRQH
# Chain of Cyclin-dependent kinase 5/CDK5 activator 1 (Q00535 whole entry): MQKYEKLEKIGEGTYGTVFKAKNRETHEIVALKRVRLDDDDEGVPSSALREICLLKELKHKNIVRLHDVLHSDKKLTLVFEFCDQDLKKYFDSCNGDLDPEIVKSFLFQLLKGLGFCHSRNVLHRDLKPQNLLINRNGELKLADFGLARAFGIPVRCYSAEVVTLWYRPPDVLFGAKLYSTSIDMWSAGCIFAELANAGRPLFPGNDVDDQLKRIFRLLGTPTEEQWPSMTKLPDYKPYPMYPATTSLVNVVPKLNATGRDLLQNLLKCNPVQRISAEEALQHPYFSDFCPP
# Chain of Cyclin-dependent kinase 5/CDK5 activator 1 (Q15078 whole entry, further chain): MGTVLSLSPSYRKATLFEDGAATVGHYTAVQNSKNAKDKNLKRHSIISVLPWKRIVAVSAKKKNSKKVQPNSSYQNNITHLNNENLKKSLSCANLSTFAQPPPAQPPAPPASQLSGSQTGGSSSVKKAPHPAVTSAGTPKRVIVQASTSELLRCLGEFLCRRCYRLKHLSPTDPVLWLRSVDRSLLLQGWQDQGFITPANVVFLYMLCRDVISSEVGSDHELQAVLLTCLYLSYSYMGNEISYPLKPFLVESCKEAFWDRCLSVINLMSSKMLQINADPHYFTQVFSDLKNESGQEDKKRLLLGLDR
compound,measurement,setting,value
CC(C)(C)Cc1nnc(NC(=O)COc2ccc(Cl)cc2Cl)o1,EC50,[1],0.81 µM (active)
CCCn1c(NC(=O)c2cccc(S(=O)(=O)N3CCCC3)c2)nc2ccccc21,IC50,[2],4.19 µM (active)
same,AC50,[3],9.76 µM (active)
same,EC50,[4],0.749 µM (active)
same,AC50,[5],3.94 µM (active)
same,IC50,[6],3.34 µM (active)
same,AC50,[7],8.66 µM (active)
same,AC50,[8],9.5 µM (active)
same,AC50,[9],11.2 µM (active)
same,AC50,[10],20.4 µM (active)
CCCCn1c(CN2CCN(c3cccc(Cl)c3)CC2)nc2c1c(=O)n(C)c(=O)n2C,IC50,[11],1.8 µM (active)
same,IC50,Fatty acid synthase [12],5.74 µM (active)
same,IC50,[13],2.21 µM (active)
same,IC50,[14],15.1 µM (active)
same,IC50,[15],2.18 µM (active)
same,IC50,[16],8.7 µM (active)
same,IC50,Fatty acid synthase [17],5.07 µM (active)
same,IC50,Interleukin-8 [18],> 25 µM (inactive)
same,IC50,HEK293 [19],> 20 µM (inactive)
same,IC50,HEK293 [20],> 20 µM (inactive)
same,IC50,[21],1.41 µM (active)
same,IC50,Tumor necrosis factor [22],3.35 µM (active)
same,IC50,Interleukin-8 [23],> 25 µM (inactive)
CCOC(=O)C1(CCOc2ccccc2)CCN(Cc2cnc(C)s2)CC1,EC50,[24],> 92.5 µM (inactive)
same,EC50,[25],> 92.5 µM (inactive)
same,EC50,[26],0.237 µM (active)
same,EC50,Mu-type opioid receptor,> 92.5 µM (inactive)
CC1(C)Cc2c(sc(NC(=O)c3ccccc3Cl)c2C(=O)O)CO1,IC50,HEK293 [27],> 20 µM (inactive)
same,IC50,[28],> 20 µM (inactive)
same,IC50,Tumor necrosis factor [29],> 20 µM (inactive)
same,IC50,[30],> 20 µM (inactive)
